Measured values taken from patent US20210107942A1, “TISSUE PROTECTIVE PEPTIDES AND PEPTIDE ANALOGS FOR PREVENTING AND TREATING DISEASES AND DISORDERS ASSOCIATED WITH TISSUE DAMAGE” (Araim Pharmaceuticals, Inc., priority 2013, published 2021).

Tests used:
[1] = test system: sciatic nerve injury; assay: Sciatic nerve injury assay (static sciatic index from toe spread); type: in vivo, Sprague-Dawley rats; conditions: rat, 50 mcg/kg into the caudal vein after nerve stretch injury, toe splaying over next four days, vs PBS; FIG. 1
Procedure: RYLLEAKEAENITTG (SECS ID NO:1) was tested for tissue protective activity using a sciatic nerve injury assay, Sprague-Dawley rats (250-300 grams) (six per group, including control) were anesthetized using isoflurane. The rat was then placed on a homeothermic blanket to ensure that the core temperature of the rat was maintained at 35-37° C. during the operation. Core temperature was monitored via a rectal probe. The right sciatic nerve of the anesthetized rat was exposed at mid thigh through a quadriceps muscle dissection; a 2 cm incision with a 15 blade scalpel was made through the skin parallel and over the quadriceps muscle and the quadriceps muscle was cut to expose the sciatic nerve using a pair of dissecting scissors. […]
Over the next four days the rear toe splaying of the rats was determined by placing the rat in an acrylic tube with a diameter of 30 cm on the scanning surface of a digital scanner. […] From the scans, the Toe Spread (the distance between the ball of the first toe and the ball of the fifth toe) and the Intermediate Toe Spread (the distance between the ball of the second toe and the ball of the fourth toe were measured. The static sciatic index (SSI) was then computed in accordance with S. Erbayraktar et al., 2003, Proc. Natl. Acad Sci USA 100, 6741-6746 (hereby incorporated by reference in its entirety) and statistical analysis performed.

[2] = test system: histamine induced wheal (edema by intradermal histamine injection); assay: Histamine induced wheal formation; type: in vivo, Sprague-Dawley rats; conditions: rat, 30 mcg/kg intravenously shortly after intradermal histamine, area at fifteen minutes, vs placebo; FIG. 2
Procedure: Under isofiurane anesthesia, 12 Sprague-Dawley rats' abdomens were shaved and depilated. Each rat was then injected intravenously (via internal jugular) with a dilute solution or Evans Blue (30 mg/ml in saline, 1 mg/kg bw). After 5 minutes, 6 small doses of histamine (histamine diphosphate, 20 microliters administered intradermally) in a rectangular pattern on each rat's abdomen. After fifteen minutes, when the wheal reaches its maximum size the wheal is photographed and the blister area was determined by digital planimetry. To test the efficacy of a peptide, RYLLEAKEAENITTG (SEQ ID NO:1) or placebo, was administered to the rats intravenously shortly after the histamine injection, at a dose of 30 mcg/kg.

[3] = test system: cancer cachexia, Yoshida hepatoma AH-130 cells; assay: Cachexia model (Yoshida hepatoma AH-130 inoculated rats); type: in vivo, Male Wistar Han rats; conditions: rat, daily 0.17 or 1.7 μg/kg/d, vs saline placebo
Procedure: Male Wistar Han rats aged 8 weeks with an approximate weight of 200 g were inoculated intraperitoneally with 10^8 Yoshida hepatoma. AH-130 cells. Body weight and body composition were assessed before tumor inoculation and on the day of sacrifice. Quality of life indicators (spontaneous activity, food and water intake) were measured on day 0 and on day 10/11. Tumor cells were counted at the last day of the study. Rats were treated daily with either (1) low dose (0.17 μg/kg/d) RYLLEAKEAENITTG (SEQ ID NO:1), (2) high dose (1.7 μg/kg/d) RYLLEAKEAENITTG (SEQ ID NO:1), or (3) or normal saline (placebo) (n=22). Body composition of animals was analyzed using an EchoMRI-700 (Echo Medical Systems, Houston, Tex., USA). The analysis of the body structures was based on Nuclear Magnetic Resonance. Spontaneous activity was measured by an infrared scanner over 24 hours using Supermex activity monitoring system (Muromachi Kikai Co., LTD., Tokyo, Japan).

Q: “RYLLEAKEAENITTG (peptide that have tissue protective activity) [tissue protective peptide of 15 amino acids derived from erythropoietin, made by Fmoc solid phase synthesis]” was tested. Which “sciatic nerve injury (static sciatic index, SSI)” value [1] did it give?
A: reduces sciatic nerve injury

Q: What about the wheal area [2] of the same sequence?
A: significantly reduced

Q: And the “loss of lean mass” value ([3]; EchoMRI, FIG. 3C)?
A: reduced loss of lean mass

Q: And the “physical activity (spontaneous activity)” value ([3]; infrared scanner over 24 hours, FIG. 3D)?
A: increased physical activity

Q: What about the weight loss ([3]; FIG. 3A) of the same sequence?
A: reduced weight loss

Q: And the epididymal fat ([3]; FIG. 3B)?
A: preserved epididymal fat
